For this test, the target named is T1, E297G variant of human ABCB11 (Homo sapiens, UniProt O95342, E297G).
T1 construct: expressed in transfected cells
T1 sequence (O95342 whole entry E297G): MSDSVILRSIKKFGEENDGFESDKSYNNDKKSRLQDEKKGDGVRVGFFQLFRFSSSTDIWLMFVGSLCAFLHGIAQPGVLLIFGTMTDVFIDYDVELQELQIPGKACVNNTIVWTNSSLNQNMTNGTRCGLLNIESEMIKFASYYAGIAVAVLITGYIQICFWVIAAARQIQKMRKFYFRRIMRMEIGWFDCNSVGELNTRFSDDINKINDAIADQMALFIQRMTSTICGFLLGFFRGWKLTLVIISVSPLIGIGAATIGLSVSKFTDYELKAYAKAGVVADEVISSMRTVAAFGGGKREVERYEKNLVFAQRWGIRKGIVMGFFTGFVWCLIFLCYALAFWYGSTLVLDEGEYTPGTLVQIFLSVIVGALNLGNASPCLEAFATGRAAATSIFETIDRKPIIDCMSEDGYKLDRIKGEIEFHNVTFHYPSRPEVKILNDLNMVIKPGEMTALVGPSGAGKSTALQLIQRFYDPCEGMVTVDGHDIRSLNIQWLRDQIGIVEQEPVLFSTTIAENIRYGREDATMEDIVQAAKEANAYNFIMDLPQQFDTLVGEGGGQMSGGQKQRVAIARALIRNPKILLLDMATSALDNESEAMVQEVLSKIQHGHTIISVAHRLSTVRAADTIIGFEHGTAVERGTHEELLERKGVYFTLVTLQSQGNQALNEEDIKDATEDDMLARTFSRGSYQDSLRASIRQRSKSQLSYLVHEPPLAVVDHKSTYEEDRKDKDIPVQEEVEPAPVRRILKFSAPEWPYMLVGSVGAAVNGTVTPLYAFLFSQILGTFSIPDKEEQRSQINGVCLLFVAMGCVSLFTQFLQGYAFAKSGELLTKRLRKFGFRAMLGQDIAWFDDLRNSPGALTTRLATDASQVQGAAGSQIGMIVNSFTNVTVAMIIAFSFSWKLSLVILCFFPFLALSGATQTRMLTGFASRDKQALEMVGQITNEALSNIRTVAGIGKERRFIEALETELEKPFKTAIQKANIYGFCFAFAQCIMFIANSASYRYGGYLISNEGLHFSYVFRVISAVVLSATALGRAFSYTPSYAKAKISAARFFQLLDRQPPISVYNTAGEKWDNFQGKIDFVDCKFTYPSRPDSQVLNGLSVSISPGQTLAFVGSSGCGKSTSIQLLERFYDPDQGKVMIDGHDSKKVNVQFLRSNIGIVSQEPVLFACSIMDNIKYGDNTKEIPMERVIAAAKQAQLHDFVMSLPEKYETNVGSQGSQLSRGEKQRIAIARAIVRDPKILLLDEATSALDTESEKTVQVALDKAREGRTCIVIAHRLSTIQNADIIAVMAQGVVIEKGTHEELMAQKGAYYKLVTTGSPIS
The experiment in a line: ABCB11 E297G expression assay (HiBit lytic luminescence) in HEK-293/E297G cells. It counts as cell-based. Particulars: increase in expression of ABCB11 E297G, 24 hours treatment, top concentration 25 μM, class also includes Emax criterion, read-out: BSEP EC50. The source says: To assess activity against ABCB11 E297G, the compounds were screened in an assay measuring protein expression, using cells transfected with cDNA encoding HiBit-tagged ABCB11 E297G.
Here we describe an assay for measuring the expression of the E297G variant of human ABCB11 (henceforth referred to as ABCB11 E297G) and the use of this assay to measure the efficacy of compounds to increase the expression of ABCB11 E297G. The assay was designed to characterize the efficacy and potency of compounds to increase the expression of ABCB11 E297G by calculating an Emax and EC50 value. HEK-293 cells stably expressing E297G (HEK-293/E297G cells) were used for this assay and were maintained at 37° C. (5% CO2, humidified) in Eagle's Minimum Essential Medium supplemented with 10% fetal bovine serum and 1% Glutamine. For the assay, the HEK-293/E297G cells were seeded in black/transparent-bottom 384-well plates at 20,000 cells/well in 22.5 μl Opti-MEM (Thermofisher, product #11058021) media supplemented with 2.7% of fetal bovine serum (Gibco, product #16000044) and allowed to settle for 4 hours at 37° C. (5% CO2, humidified). Compound serial dilutions are prepared in Opti-MEM as four times (4×) the final concentration and using a dilution factor of 2.15. After the four h incubation period, 7.5 μL of the 4× dilutions are transferred to the assay plate.
Dose response curves include eight doses with the top final concentration at 25 μM in 0.75% DMSO. Liquid handling is performed in a robotic device equipped with a 384-tip head (Analytik Jena—CyBio Vario). After addition of compound treatment, cells are incubated for 24 hours at 37° C. (5% CO2, humidified). After the 24-hour treatment, plates are allowed to equilibrate for 30 minutes at room temperature. Using the Analytik Jena—CyBio Vario instrument, the volume of each well is reduced to 15 μl and 15 μl of HiBit lytic assay reagent (Promega, product #N3040), which is prepared according to manufacturer's instructions, is added back to each well. The plates are incubated at room temperature for additional 30 minutes and luminescent signal is acquired using a Hamamatsu FDSS 7000 EX plate-reader (20 reads, exposure time 0.2 seconds, gain 200).
Results are presented below in Table 3 for ABCB11 E297G.
For orientation: HiBiT is a short tag that completes a luciferase, so light tracks the accessible tagged protein.
Take `Cc1ccc(NC(=O)c2cnc(-c3ccccn3)nc2)nc1-c1cn(C)c(=O)c2[nH]ccc12` [Compound I-1]: the EC50 lay in the range of 2.5 to 10 µM.

Take `Cc1ccc(NC(=O)[C@@H]2CCCN2C(C)C)nc1-c1cn(C)c(=O)c2[nH]ccc12` [Compound I-2]: the EC50 lay in the range of 2.5 to 10 µM.

As for `Cc1ccc(NC(=O)c2cnn(-c3ccccc3F)c2)nc1-c1cn(C)c(=O)c2[nH]ccc12` [Compound I-3], the EC50 is over 25 µM.

As to `Cc1ccc(NC(=O)c2nc(-c3ccccc3)ns2)nc1-c1cn(C)c(=O)c2[nH]ccc12` [Compound I-4], the concentration for a half-maximal effect (EC50) is over 25 µM.

In the case of `Cc1ccc(NC(=O)c2ccc(C(F)(F)F)nc2)nc1-c1cn(C)c(=O)c2[nH]ccc12` [Compound I-5], the EC50 fell in the range of 2.5 to 10 µM.

`Cc1ccc(NC(=O)c2cccc3c2OC(C)(C)CC3)nc1-c1cn(C)c(=O)c2[nH]ccc12` [Compound I-6]: the EC50 is 2.5 to 10 µM.

Turning to `Cc1ccc(NC(=O)c2cnc(C(F)(F)F)s2)nc1-c1cn(C)c(=O)c2[nH]ccc12` [Compound I-7], the EC50 was over 25 µM.

As for `Cc1ccc(NC(=O)c2cc(CC(C)C)nn2C)nc1-c1cn(C)c(=O)c2[nH]ccc12` [Compound I-8], the EC50 was under 2.5 µM.

Regarding `Cc1ccc(NC(=O)c2cnn(-c3ccccc3)c2C)nc1-c1cn(C)c(=O)c2[nH]ccc12` [Compound I-9], the EC50 was over 25 µM.

As for `Cc1cnc2ncc(C(=O)Nc3ccc(C)c(-c4cn(C)c(=O)c5[nH]ccc45)n3)n2c1` [Compound I-10], the EC50 was over 25 µM.

For `Cc1ccc(NC(=O)C2CCN(c3ccccc3)CC2)nc1-c1cn(C)c(=O)c2[nH]ccc12` [Compound I-11], the EC50 was under 2.5 µM.

Consider `Cc1ccc(NC(=O)C2CCN(c3ccccn3)CC2)nc1-c1cn(C)c(=O)c2[nH]ccc12` [Compound I-12], for which the EC50 lay within 2.5 to 10 µM.

Regarding `Cc1ccc(NC(=O)C2CCN(S(C)(=O)=O)CC2)nc1-c1cn(C)c(=O)c2[nH]ccc12` [Compound I-13], the EC50 lay within 10 to 25 µM.

With `Cc1ccc(NC(=O)c2cc3ccc(F)cc3n2C)nc1-c1cn(C)c(=O)c2[nH]ccc12` [Compound I-14], the EC50 is over 25 µM.

For the molecule `Cc1ccc(NC(=O)c2ccc3c(c2)OCCN3C)nc1-c1cn(C)c(=O)c2[nH]ccc12` [Compound I-15], the EC50 was 2.5 to 10 µM.

As to `Cc1ccc(NC(=O)c2nc3c(s2)CN(C)CC3)nc1-c1cn(C)c(=O)c2[nH]ccc12` [Compound I-16], the EC50 lay within 10 to 25 µM.

`Cc1ccc(NC(=O)C2CCC(F)(F)C2)nc1-c1cn(C)c(=O)c2[nH]ccc12` (centres unmarked) [Compound I-17]: the concentration for a half-maximal effect (EC50) was under 2.5 µM.

As to `Cc1ccc(NC(=O)c2ccc3c(c2)n(C)c(=O)n3C)nc1-c1cn(C)c(=O)c2[nH]ccc12` [Compound I-18], the EC50 was over 25 µM.

On to `Cc1ccc(NC(=O)c2cc(-c3ccccc3)no2)nc1-c1cn(C)c(=O)c2[nH]ccc12` [Compound I-19], for which the EC50 was over 25 µM.

For the molecule `Cc1ccc(NC(=O)c2ccc3c(ccn3C)c2)nc1-c1cn(C)c(=O)c2[nH]ccc12` [Compound I-20], the EC50 lay in the range of 2.5 to 10 µM.

With `Cc1ccc(NC(=O)c2cnn(C3CCOCC3)c2)nc1-c1cn(C)c(=O)c2[nH]ccc12` [Compound I-21], the concentration for a half-maximal effect (EC50) is 10 to 25 µM.

In the case of `Cc1ccc(NC(=O)c2coc(N3CCOCC3)n2)nc1-c1cn(C)c(=O)c2[nH]ccc12` [Compound I-22], the EC50 is 2.5 to 10 µM.

With `Cc1ccc(NC(=O)c2ccc(-n3cccn3)cc2)nc1-c1cn(C)c(=O)c2[nH]ccc12` [Compound I-23], the EC50 was over 25 µM.

With `Cc1ccc(NC(=O)c2ccncn2)nc1-c1cn(C)c(=O)c2[nH]ccc12` [Compound I-24], the EC50 fell in the range of 10 to 25 µM.

Take `CCOC(=O)N1CCC(C(=O)Nc2ccc(C)c(-c3cn(C)c(=O)c4[nH]ccc34)n2)CC1` [Compound I-25]: the EC50 lay in the range of 2.5 to 10 µM.

For the molecule `Cc1ccc(NC(=O)c2ccc3cnccc3c2)nc1-c1cn(C)c(=O)c2[nH]ccc12` [Compound I-26], the EC50 was 2.5 to 10 µM.

With `Cc1ccc(NC(=O)c2cc3n(n2)CCCC3)nc1-c1cn(C)c(=O)c2[nH]ccc12` [Compound I-27], the EC50 was 2.5 to 10 µM.

For `Cc1ccc(NC(=O)C2CCCc3ccccc32)nc1-c1cn(C)c(=O)c2[nH]ccc12` (centres unmarked) [Compound I-176], the EC50 was under 2.5 µM.

On to `Cc1ccc(NC(=O)C2CCc3ccccc32)nc1-c1cn(C)c(=O)c2[nH]ccc12` (centres unmarked) [Compound I-177], for which the EC50 was 2.5 to 10 µM.

A word on the EC50: it is the concentration giving half of the maximal effect.

The values above are taken from patent US20260092062A1, “PYRIDINE CARBOXAMIDE COMPOUNDS AND THEIR USE IN TREATING MEDICAL CONDITIONS” (Rectify Pharmaceuticals, Inc., priority 2022, published 2026).
